“And” between values parts separate entries of the source, which are not always exact repeats. Equal entries are not always repeated. Where two headings read alike, the source gives them in different places.
Assays:
hNE = biological target: T1, hNE (Homo sapiens, UniProt P08246); assay: Fluorescence-based enzymatic activity assay with hNE (MeOSuc-AAPV-AMC substrate); type: biochemical; details: for %Relative activity of enzyme: hNE, Rep1-Rep3
T1 construct: Enzymes purified from human neutrophiles (hPR3 and hNE); purchased Athens Research and Technology; host or cells: human neutrophils
T1 sequence (P08246 30-247 limits assumed): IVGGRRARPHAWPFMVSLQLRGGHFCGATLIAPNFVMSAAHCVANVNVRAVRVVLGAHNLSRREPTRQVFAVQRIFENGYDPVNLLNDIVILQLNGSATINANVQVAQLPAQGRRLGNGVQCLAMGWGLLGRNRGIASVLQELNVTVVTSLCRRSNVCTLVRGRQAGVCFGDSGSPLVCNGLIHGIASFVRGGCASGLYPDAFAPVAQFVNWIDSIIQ
Method: The reaction was started by adding the fluorogenic substrate (MeOSuc-AAPV-AMC) at a final concentration of 5 μM. The fluorescent signal (excitation filter 360, emission filter 460) was read as described above for PR3.
(§1) Data were fitted using nonlinear regression analysis (GraphPad Prism v.9) to determine the IC50 values.

rPR3 [1] = biological target: T2, rPR3 (Homo sapiens, UniProt P24158); assay: SPR binding assay on biotinylated rPR3; details: for SPR binding behaviour towards rPR3 (in words): sensorgrams Fig 5
T2 construct: TEV cleavage site (C); 6x His-tag (C); made in house; host or cells: Spodoptera frugiperda Sf9 (baculovirus), secreted
T2 sequence (P24158 28-248 limits assumed): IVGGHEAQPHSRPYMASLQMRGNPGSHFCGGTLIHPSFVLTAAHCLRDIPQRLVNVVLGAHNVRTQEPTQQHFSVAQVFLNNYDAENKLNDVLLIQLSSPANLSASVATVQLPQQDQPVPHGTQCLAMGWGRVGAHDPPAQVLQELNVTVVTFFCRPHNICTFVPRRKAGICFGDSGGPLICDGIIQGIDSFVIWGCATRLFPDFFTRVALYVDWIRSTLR

rPR3 [2] = biological target: T2, rPR3; assay: Fluorescence-based enzymatic activity assay with rPR3 (FRET peptide Abz-VADnVADYQ-EDDnp); type: biochemical
Method: (§2) The reaction was started by adding the FRET peptide (Abz-VADnVADYQ-EDDnp) at a final concentration of 5 μM. The fluorescent signal (excitation filter 320, emission filter 420) was read every 30 s for 30 min at 30°C with a fluorescent plate reader (Tecan Spark) and the enzymatic activity was measured from the initial linear portion of the slope (fluorescent signal/min) of the time-course curve of reaction progress.
as §1

hPR3 = biological target: T3, hPR3 (Homo sapiens, UniProt P24158); assay: Fluorescence-based enzymatic activity assay with hPR3 (FRET peptide Abz-VADnVADYQ-EDDnp); type: biochemical
T3 construct: Enzymes purified from human neutrophiles (hPR3 and hNE); purchased Athens Research and Technology; host or cells: human neutrophils
T3 sequence (P24158 28-248 limits assumed): T2 sequence (P24158 28-248 limits assumed)
Method: as §2, §1

[3] = biological target: α1-antitrypsin (Homo sapiens) (UniProt P01009); details: cited from earlier work
PR3 = details: cited from earlier work
[4] = affinity data, single replicates Rep1-Rep3, read-out: Steady state KD
[5] = steady state, average and SD of triplicates, read-out: Steady state KD
[6] = IC50 replicates Rep1-Rep3, read-out: rPR3 IC50
[7] = mean ± SD (n = 3), read-out: IC50 rPR3
[8] = IC50 replicates Rep1-Rep3, read-out: hPR3 IC50
[9] = mean ± SD (n = 3), read-out: IC50 hPR3

α1-antitrypsin (Homo sapiens), sequence (P01009 25-418): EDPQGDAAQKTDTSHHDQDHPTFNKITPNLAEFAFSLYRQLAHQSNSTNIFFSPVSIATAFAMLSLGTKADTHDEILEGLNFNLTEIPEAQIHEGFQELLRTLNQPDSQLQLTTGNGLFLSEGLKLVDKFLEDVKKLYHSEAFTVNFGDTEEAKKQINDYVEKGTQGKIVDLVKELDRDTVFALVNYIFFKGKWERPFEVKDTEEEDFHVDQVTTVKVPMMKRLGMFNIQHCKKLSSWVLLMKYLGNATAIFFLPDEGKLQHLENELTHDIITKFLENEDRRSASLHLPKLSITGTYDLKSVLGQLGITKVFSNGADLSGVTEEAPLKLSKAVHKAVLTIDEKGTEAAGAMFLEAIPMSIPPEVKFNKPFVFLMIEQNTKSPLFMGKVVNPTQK

Cc1c(-c2ccnn2C)cc(C(=O)NCc2ccc(S(C)(=O)=O)cn2)c(=O)n1-c1cccc(C(F)(F)F)c1 [Alvelestat]
IC50 (hNE; IC50 replicates Rep1-Rep3): 10.7 nM and 12.1 nM and 11.6 nM
%Relative activity of enzyme (hNE; inhibitor 1.95 nM): 78.8834% and 84.934% and 85.1448%
%Relative activity of enzyme (hNE; inhibitor 3.9 nM): 78.3028% and 76.8727%
%Relative activity of enzyme (hNE; inhibitor 7.8 nM): 61.4733% and 58.7939% and 60.1294%
%Relative activity of enzyme (hNE; inhibitor 15.6 nM): 40.7947% and 40.9606% and 39.7611%
%Relative activity of enzyme (hNE; inhibitor 31.25 nM): 27.1224% and 29.7155% and 27.7611%
%Relative activity of enzyme (hNE; inhibitor 62.5 nM): 15.0503% and 20.2323% and 16.5108%
%Relative activity of enzyme (hNE; inhibitor 125 nM): 9.7027% and 8.522% and 9.4691%
Kd (rPR3 [1]; [4]): 1.95e-05 M and 1.26e-05 M and 8.36e-06 M
SPR binding behaviour towards rPR3 (in words) (rPR3 [1]): weak rPR3 binder with fast association and dissociation rates
Kd (rPR3 [1]; [5]): 1.35e-05 ± 5.6e-06 M

CC1=C(C#N)[C@@H](c2ccc(C#N)cc2S(C)(=O)=O)N(C)C(=O)N1c1cccc(C(F)(F)F)c1 [BAY-85-8501]
Kd (rPR3 [1]; 1:1 binding kinetic model, average and SD of triplicates, read-out: KD): 1.4e-08 M
Kd (rPR3 [1]; affinity data, average of Rep1-Rep3, read-out: Steady state KD (M), Average): 2.87e-08 M
Kd (rPR3 [1]; [4]): 2.6e-08 M and 4.4e-08 M and 1.6e-08 M
Kd (rPR3 [1]; average of Rep1-Rep3, read-out: KD (M), kinetics 1:1, Average): 1.37e-08 M
Kd (rPR3 [1]; single replicates Rep1-Rep3, read-out: KD (M), kinetics 1:1): 1.37e-08 M and 1.09e-08 M and 1.66e-08 M
Kd (rPR3 [1]; [5]): 3e-08 ± 1e-08 M
Ki (rPR3 [2]; Cheng-Prusoff equation, literature Km 27.4 μM, read-out: Ki derived from the IC50 value): 50 nM
IC50 (rPR3 [2]; [6]): 67.7 nM and 55 nM and 53.6 nM
IC50 (rPR3 [2]; [7]): 59 ± 8 nM
IC50 (hPR3; [8]): 24.3 nM and 24.7 nM and 31.5 nM
IC50 (hPR3; [9]): 27 ± 4 nM

CC(C)(C)C(=O)Oc1ccc(S(=O)(=O)Nc2ccccc2C(=O)NCC(=O)O)cc1 [Sivelestat]
SPR binding behaviour towards rPR3 (in words) (rPR3 [1]): hardly dissociated
IC50 (rPR3 [2]; [6]): 35.8 nM and 29.5 nM and 30.1 nM
IC50 (rPR3 [2]; [7]): 32 ± 4 nM
IC50 (hPR3; [8]): 33.6 nM and 34.1 nM and 30.4 nM
IC50 (hPR3; [9]): 33 ± 2 nM

Proteinase 3 (from UniProt P24158)
Ki [3]: 38 nM

α1-antitrypsin: endogenous serine protease inhibitor, also denoted SERPIN; purchased from Sigma-Aldrich
SPR binding behaviour towards rPR3 (in words) (rPR3 [1]): hardly dissociated
IC50 (rPR3 [2]; IC50 replicates Rep1-Rep3, listed as a1-antitrypsin, read-out: rPR3 IC50): 15.3 nM and 14.7 nM and 13.5 nM
IC50 (rPR3 [2]; [7]): 14 ± 1 nM
IC50 (hPR3; IC50 replicates Rep1-Rep3, listed as a1-antitrypsin, read-out: hPR3 IC50): 15.8 nM and 15.5 nM and 14.6 nM
IC50 (hPR3; [9]): 15 ± 1 nM
first-order rate constant k2 (EI* to irreversible EI) (PR3): 0.04 s⁻¹
